The target in assay [1] is T1, PRMT5/MEP50 complex (Homo sapiens (Human), UniProt O14744). Kind of assay: PRMT5:MEP50 HotSpot Assay (full-length histone H2A substrate, plus and minus MTA). It is filed as biochemical. The note with it: in the presence of 2 μM MTA. An outline of the steps:
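Tritium incorporated into recombinant full-length histone H2A was counted by scintillation after stopped reactions were captured on filter paper.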

Assay [2] has as its system HCT116 homozygous MTAP knockout cells. Kind of assay: Proliferation assay (CellTiter-Glo, 10 days of treatment), HCT116 MTAP knockout. It is filed as cell-based. The following applies: read-out: Proliferation HCT116MTAP_KO IC50. The procedure, abridged: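 Viability of the CRISPR/Cas9 homozygous MTAP-knockout HCT116 line was read by CellTiter-Glo after 10 days of PRMT5 inhibitor exposure, with IC50 derived from the dose response. Compound was given the day after seeding and renewed at an identical concentration when cells were split 1:10 on day 6.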
In general terms: ATP-based viability assays read luminescence as a measure of living cells.

The target in assay [3] is T1, PRMT5/MEP50 complex. As to the kind of experiment: PRMT5:MEP50 FlashPlate Assay (histone H4 peptide substrate, plus and minus MTA). It is filed as biochemical. Here is the method:
The PRMT5 inhibitory activity of compounds of the present invention was determined using either a PRMT5:MEP50 FlashPlate Assay (Reaction Biology Corporation) or a PRMT5:MEP50 HotSpot Assay (Reaction Biology Corporation).
1. PRMT5:MEP50 FlashPlate Assay

Assay [4] has as its system PRMT5-dependent Symmetric Di-methyl Arginine signal in HCT116 homozygous MTAP knockout cells. As to the kind of experiment: SYM11 In-Cell Western, HCT116 MTAP knockout. Format: cell-based. The note with it: HCT116 homozygous MTAP knockout cells, 4 days of treatment, SYM11/DRAQ5 ratio, read-out: In-cell-Western (SYM11) HCT116 MTAP_KO IC50.
Assay [5] has as its system PRMT5-dependent Symmetric Di-methyl Arginine signal in HCT116 parental cells. Kind of assay: SYM11 In-Cell Western, HCT116 parental. It is filed as cell-based. The following applies: Homo sapiens, HCT-116, 96 h, 4 days of treatment, SYM11/DRAQ5 ratio. Here is the method: Control samples were analyzed in parallel.
Briefly, on Day 0, 2,000 HCT116 parental or HCT116 homozygous MTAP knockout cells were seeded in 96 well plates in McCoy's 5A supplemented with 10% fetal bovine serum and pen/strep and the cells were incubated overnight at 37° C. plus 5% CO2. The following day, cells were treated with DMSO vehicle control or a dose response of PRMT5 inhibitors, and incubated at 37° C. plus 5% CO^2 for four days.
After 4 days of treatment, the cells were fixed by adding 50 μl of 4% paraformaldehyde solution to each well and the cells were incubated for 20 min at room temperature. The paraformaldehyde solution was removed, 150 μl of ice-cold methanol was added and the plate was placed −20° C. for 10 minutes. The methanol was removed, 150 μl of Odyssey Blocking buffer+0.05% Tween20 was added and the plate was incubated at room temperature with shaking for one hour.
The primary SYM11 antibody solution was removed by aspiration and the wells were washed three consecutive times with phosphate buffered saline containing 0.1% Tween-20 (PBST).
The secondary antibody solution was removed by aspiration and the wells were washed three consecutive times with PB ST.
The SYM11 signal and the DRAQ5 signal were quantified using a Li-Cor Odyssey machine reading at […], respectively. The SYM11/DRAQ5 ratio was used to calculate the inhibition of Symmetric Dimethyl Arginine as percent of DMSO control.

The mark [6] stands for this setting: IC50 + 2 μM MTA (nM), in the presence of 2 μM MTA.
The mark [7] stands for this setting: in the absence of MTA, read-out: IC50.

The structures appear in SMILES notation. Where two headings read alike, the source gives them in different places.

T1 sequence (O14744 2-637): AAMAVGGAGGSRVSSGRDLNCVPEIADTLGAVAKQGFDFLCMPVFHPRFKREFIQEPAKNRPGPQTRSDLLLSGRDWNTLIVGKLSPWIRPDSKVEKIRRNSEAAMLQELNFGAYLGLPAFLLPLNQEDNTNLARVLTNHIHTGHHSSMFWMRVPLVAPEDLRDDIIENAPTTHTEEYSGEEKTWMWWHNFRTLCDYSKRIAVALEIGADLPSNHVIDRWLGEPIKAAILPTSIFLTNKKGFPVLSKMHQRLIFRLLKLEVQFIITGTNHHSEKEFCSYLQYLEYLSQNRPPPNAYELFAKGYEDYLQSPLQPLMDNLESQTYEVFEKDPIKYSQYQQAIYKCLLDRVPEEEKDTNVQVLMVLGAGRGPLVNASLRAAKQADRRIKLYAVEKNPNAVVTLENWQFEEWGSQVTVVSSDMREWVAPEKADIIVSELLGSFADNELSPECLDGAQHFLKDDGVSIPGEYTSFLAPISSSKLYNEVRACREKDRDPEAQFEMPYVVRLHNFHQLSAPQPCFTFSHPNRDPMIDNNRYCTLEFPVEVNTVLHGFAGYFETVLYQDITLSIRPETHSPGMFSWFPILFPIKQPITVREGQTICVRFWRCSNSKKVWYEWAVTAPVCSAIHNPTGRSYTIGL
T1 sequence (Q9BQA1 2-342 partner): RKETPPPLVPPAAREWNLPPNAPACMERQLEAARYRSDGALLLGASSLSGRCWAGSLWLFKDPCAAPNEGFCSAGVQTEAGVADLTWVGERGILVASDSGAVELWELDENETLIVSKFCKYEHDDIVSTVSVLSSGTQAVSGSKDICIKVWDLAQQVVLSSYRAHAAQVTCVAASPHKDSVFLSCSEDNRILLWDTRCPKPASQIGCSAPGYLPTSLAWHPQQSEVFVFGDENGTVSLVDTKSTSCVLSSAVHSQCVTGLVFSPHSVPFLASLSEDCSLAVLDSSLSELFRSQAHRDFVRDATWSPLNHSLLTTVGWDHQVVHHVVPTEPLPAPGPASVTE

For `CC(N)c1n[nH]c(=O)c2ccc(-c3cnn(C)c3-c3cccc(Cl)c3C#N)cc12` (single isomer, unassigned) [Example 9-2, 2-[4-[4-(1-aminoethyl)-1-oxo-2H-phthalazin-6-yl]-2-methyl-pyrazol-3-yl]-6-chloro-benzonitrile], the IC50 at PRMT5/MEP50 complex [1] (IC50 + 2 μM MTA) was over 10 µM; in assay [2] it was over 10 µM; on PRMT5/MEP50 complex [3] (setting [6]) it was over 10000 nM; in assay [4] it was over 1 µM.

Turning to `Cc1ccc(C#N)c(-c2c(-c3ccc4c(=O)[nH]nc(CN)c4c3)cnn2C)c1` [Example 4-105, 2-(4-(4-(aminomethyl)-1-oxo-1,2-dihydrophthalazin-6-yl)-1-methyl-1H-pyrazol-5-yl)-4-methylbenzonitrile], the IC50 on PRMT5/MEP50 complex [1] (IC50 + 2 μM MTA) worked out at 1 µM; in assay [5], 10 µM; in assay [2] (Homo sapiens, HCT-116, 240 h) it was 1.4 µM; on PRMT5/MEP50 complex [3] (setting [6]), 1.8 nM; at PRMT5/MEP50 complex [3] (setting [7]), 71 nM; in assay [4] (Homo sapiens, HCT-116, 96 h), 0.469 µM.

With `COc1ccc(C#N)c(-c2c(-c3ccc4c(=O)[nH]nc(CN)c4c3)cnn2C)c1` [Example 4-104, 2-(4-(4-(aminomethyl)-1-oxo-1,2-dihydrophthalazin-6-yl)-1-methyl-1H-pyrazol-5-yl)-4-methoxybenzonitrile], the IC50 on PRMT5/MEP50 complex [1] (IC50 + 2 μM MTA) came to 0.794 µM; in assay [5], 3.33 µM; in assay [2] (Homo sapiens, HCT-116, 240 h), 5.32 µM; at PRMT5/MEP50 complex [3] (setting [6]), 0.5 nM; on PRMT5/MEP50 complex [3] (setting [7]) it was 28 nM; in assay [4] (Homo sapiens, HCT-116, 96 h), 0.391 µM.

For the molecule `Cc1ccc(-c2c(-c3ccc4c(=O)[nH]nc(CN)c4c3)cnn2C)c(C#N)c1` [Example 4-106, 2-(4-(4-(aminomethyl)-1-oxo-1,2-dihydrophthalazin-6-yl)-1-methyl-1H-pyrazol-5-yl)-5-methylbenzonitrile], the IC50 on PRMT5/MEP50 complex [1] (IC50 + 2 μM MTA) stood at 0.816 µM; in assay [5] it was 3.33 µM; in assay [2] (Homo sapiens, HCT-116, 240 h) it was 1.6 µM; on PRMT5/MEP50 complex [3] (setting [6]), 0.5 nM; at PRMT5/MEP50 complex [3] (setting [7]), 56 nM; in assay [4] (Homo sapiens, HCT-116, 96 h) it was 0.261 µM.

Regarding `Cn1cc(-c2ccc(-c3c(-c4ccc5c(=O)[nH]nc(CN)c5c4)cnn3C)c(C#N)c2)cn1` [Example 12-5, 2-(4-(4-(aminomethyl)-1-oxo-1,2-dihydrophthalazin-6-yl)-1-methyl-1H-pyrazol-5-yl)-5-(1-methyl-1H-pyrazol-4-yl)benzonitrile], the IC50 is 0.112 µM on PRMT5/MEP50 complex [1] (IC50 + 2 μM MTA); 3.17 µM in assay [2] (Homo sapiens, HCT-116, 240 h); 0.456 µM in assay [4] (Homo sapiens, HCT-116, 96 h).

`Cn1ncc(-c2ccc3c(=O)[nH]nc(CN)c3c2)c1-c1c(C#N)cc2ccccc2c1Cl` (single isomer, unassigned) [Example 16-6]: the values for the IC50 (on PRMT5/MEP50 complex [1] (read-out: IC50 + 2 μM MTA); in assay [2]; in assay [4]) were 0.028 µM, 0.064 µM and 0.02 µM, respectively.

In the case of `Cn1ncc(-c2ccc3c(=O)[nH]nc(CN)c3c2)c1-c1cccc2c1COCC2` [Example 4-221, 4-(aminomethyl)-6-(5-(isochroman-8-yl)-1-methyl-1H-pyrazol-4-yl)phthalazin-1(2H)-one], the IC50 was 0.501 µM at PRMT5/MEP50 complex [1] (IC50 + 2 μM MTA); 2.38 µM in assay [2] (Homo sapiens, HCT-116, 240 h); 0.196 µM in assay [4] (Homo sapiens, HCT-116, 96 h).

As for `Cn1ncc(-c2ccc3c(=O)[nH]nc(CN)c3c2)c1-c1c(C#N)cc2ccccc2c1Cl` (single isomer, unassigned) [Example 16-5], the IC50 on PRMT5/MEP50 complex [1] (read-out: IC50 + 2 μM MTA) is 0.994 µM; in assay [2] it was 2.85 µM; in assay [4], 0.272 µM.

Consider `Cn1ncc(-c2ccc3c(=O)[nH]nc(CN)c3c2)c1-c1cc(Cl)ccc1C#N` [Example 4-103, 2-(4-(4-(aminomethyl)-1-oxo-1,2-dihydrophthalazin-6-yl)-1-methyl-1H-pyrazol-5-yl)-4-chlorobenzonitrile], for which the IC50 stood at 6.67 µM in assay [5]; 4.39 µM in assay [2] (Homo sapiens, HCT-116, 240 h); 0.5 nM on PRMT5/MEP50 complex [3] (setting [6]); 115 nM at PRMT5/MEP50 complex [3] (setting [7]); 0.255 µM in assay [4] (Homo sapiens, HCT-116, 96 h).

Consider `Cn1ncc(-c2ccc3c(=O)[nH]nc(CN)c3c2)c1-c1cccc2ccncc12` [Example 4-222, 4-(aminomethyl)-6-(5-(isoquinolin-8-yl)-1-methyl-1H-pyrazol-4-yl)phthalazin-1(2H)-one], for which the IC50 at PRMT5/MEP50 complex [1] (IC50 + 2 μM MTA) stood at 0.255 µM; in assay [2] (Homo sapiens, HCT-116, 240 h), 5.34 µM; in assay [4] (Homo sapiens, HCT-116, 96 h) it was 0.296 µM.

Regarding `NCc1n[nH]c(=O)c2ccc(-c3cnc4[nH]cc(-c5ccccc5)c4c3)cc12` [Example 4-190, 4-(aminomethyl)-6-(3-phenyl-1H-pyrrolo[2,3-b]pyridin-5-yl)phthalazin-1(2H)-one], the IC50 at PRMT5/MEP50 complex [1] (IC50 + 2 μM MTA) was 0.278 µM; in assay [5] it was over 3.33 µM; in assay [2] (Homo sapiens, HCT-116, 240 h) it was 1.98 µM; in assay [4] (Homo sapiens, HCT-116, 96 h) it was over 3.33 µM.

As to `Cn1cc(-c2ccc(C#N)c(-c3c(-c4ccc5c(=O)[nH]nc(CN)c5c4)cnn3C)c2)cn1` [Example 12-6, 2-[4-[4-(aminomethyl)-1-oxo-2H-phthalazin-6-yl]-2-methyl-pyrazol-3-yl]-4-(1-methylpyrazol-4-yl)benzonitrile], the IC50 on PRMT5/MEP50 complex [1] (IC50 + 2 μM MTA) was 0.73 µM; in assay [2] (Homo sapiens, HCT-116, 240 h) it was 7.47 µM; in assay [4] (Homo sapiens, HCT-116, 96 h), 0.38 µM.

In the case of `Cn1ncc(-c2ccc3c(=O)[nH]nc(CN)c3c2)c1-c1ccc(Cl)cc1C#N` [Example 4-101, 2-(4-(4-(aminomethyl)-1-oxo-1,2-dihydrophthalazin-6-yl)-1-methyl-1H-pyrazol-5-yl)-5-chlorobenzonitrile], the IC50 at PRMT5/MEP50 complex [1] (IC50 + 2 μM MTA) is 0.892 µM; in assay [5], 6.67 µM; in assay [2] (Homo sapiens, HCT-116, 240 h), 2.31 µM; at PRMT5/MEP50 complex [3] (setting [6]), 0.5 nM; at PRMT5/MEP50 complex [3] (setting [7]), 17 nM; in assay [4] (Homo sapiens, HCT-116, 96 h), 0.376 µM.

With `Cn1ncc(-c2ccc3c(=O)[nH]nc(CN)c3c2)c1CC(C#N)c1ccccc1` (stereo not shown) [Example 4-183, 3-(4-(4-(aminomethyl)-1-oxo-1,2-dihydrophthalazin-6-yl)-1-methyl-1H-pyrazol-5-yl)-2-phenylpropanenitrile], the IC50 at PRMT5/MEP50 complex [1] (IC50 + 2 μM MTA) is 2.77 µM; in assay [2] (Homo sapiens, HCT-116, 240 h) it was 0.897 µM; in assay [4] (Homo sapiens, HCT-116, 96 h), 0.324 µM.

On to `CCOc1ccc(-c2c(-c3ccc4c(=O)[nH]nc(CN)c4c3)cnn2C)cc1` [Example 4-254, 4-(aminomethyl)-6-[5-(4-ethoxyphenyl)-1-methyl-pyrazol-4-yl]-2H-phthalazin-1-one], for which the IC50 was determined as 3.33 µM in assay [5]; 2.17 µM in assay [2] (Homo sapiens, HCT-116, 240 h); 0.377 µM in assay [4] (Homo sapiens, HCT-116, 96 h).

On to `COc1cccc(-c2c(-c3ccc4c(=O)[nH]nc(CN)c4c3)cnn2C)c1C#N` [Example 4-107, 2-(4-(4-(aminomethyl)-1-oxo-1,2-dihydrophthalazin-6-yl)-1-methyl-1H-pyrazol-5-yl)-6-methoxybenzonitrile], for which the IC50 stood at 0.76 µM at PRMT5/MEP50 complex [1] (IC50 + 2 μM MTA); 10 µM in assay [5]; 1.06 µM in assay [2] (Homo sapiens, HCT-116, 240 h); 0.5 nM at PRMT5/MEP50 complex [3] (setting [6]); 37 nM on PRMT5/MEP50 complex [3] (setting [7]); 0.031 µM in assay [4] (Homo sapiens, HCT-116, 96 h).

As for `Cn1ncc(-c2ccc3c(=O)[nH]nc(CN)c3c2)c1-c1cc(C#N)c2ccccc2c1C#N` [Example 4-207, 2-(4-(4-(aminomethyl)-1-oxo-1,2-dihydrophthalazin-6-yl)-1-methyl-1H-pyrazol-5-yl)naphthalene-1,4-dicarbonitrile], the IC50 in assay [5] is over 10 µM; in assay [2] (Homo sapiens, HCT-116, 240 h) it was 0.098 µM; in assay [4] (Homo sapiens, HCT-116, 96 h), 0.003 µM.

Take `CC(N)c1n[nH]c(=O)c2ccc(-c3cnn(C)c3-c3cccc(Cl)c3C#N)cc12` (single isomer, unassigned) [Example 9-3, 2-[4-[4-(1-aminoethyl)-1-oxo-2H-phthalazin-6-yl]-2-methyl-pyrazol-3-yl]-6-chloro-benzonitrile]: the IC50 was found to be 1.27 µM at PRMT5/MEP50 complex [1] (IC50 + 2 μM MTA), 4.82 µM in assay [2] and 0.141 µM in assay [4].

For `Cn1ncc(-c2ccc3c(=O)[nH]nc(CN)c3c2)c1-c1ccc2ccccc2c1Cl` [Example 4-181, 4-(aminomethyl)-6-(5-(1-chloronaphthalen-2-yl)-1-methyl-1H-pyrazol-4-yl)phthalazin-1(2H)-one], the IC50 on PRMT5/MEP50 complex [1] (IC50 + 2 μM MTA) is 0.401 µM; in assay [2] (Homo sapiens, HCT-116, 240 h), 0.45 µM; in assay [4] (Homo sapiens, HCT-116, 96 h), 0.025 µM.

These data come from US11479551B2, “MTA-cooperative PRMT5 inhibitors” (Mirati Therapeutics, Inc., priority 2019, dated 2022).
